Data: ChEMBL document CHEMBL5226375, “Synthesis and Comprehensive in Vivo Activity Profiling of Olean-12-en-28-ol, 3β-Pentacosanoate in Experimental Autoimmune Encephalomyelitis: A Natural Remyelinating and Anti-Inflammatory Agent” (J Nat Prod, 2023)
Activity calls are given as the source filed them. The calls are words filed in the database; no cut-off is given here.

Assays:
Mus musculus [1] = assay: Anti-inflammatory activity against MOG35-55-induced experimental autoimmune encephalomyelitis C57BL/6 mouse model assessed as reduction in IL-6 protein expression in brain at 300 to 600 mg/kg/day, ig for 14 days starting from 12th day of immunization by western blot analysis; format: functional, organism-based; settings: dose 300-600 mg/kg/day, time 14.0 day
Mus musculus [2] = assay: Anti-inflammatory activity against MOG35-55-induced experimental autoimmune encephalomyelitis C57BL/6 mouse model assessed as fold change in STAT3 gene expression in brain at 600 mg/kg/day, ig for 14 days starting from 12th day of immunization by RT-qPCR analysis relative to control; format: functional; settings: time 14 day
Mus musculus [3] = assay: Anti-inflammatory activity against MOG35-55-induced experimental autoimmune encephalomyelitis C57BL/6 mouse model assessed as reduction in serum […] cytokine level by measuring reduction in IL-17 level at 600 mg/kg/day, ig for 14 days starting from 12th day of immunization by ELISA; format: functional, organism-based; settings: time 14.0 day
Mus musculus [4] = assay: Anti-inflammatory activity against MOG35-55-induced experimental autoimmune encephalomyelitis C57BL/6 mouse model assessed as fold change in MAG gene expression in brain at 600 mg/kg/day, ig for 14 days starting from 12th day of immunization by RT-qPCR analysis relative to control; format: functional; settings: time 14 day
Mus musculus [5] = assay: Anti-inflammatory activity against MOG35-55-induced experimental autoimmune encephalomyelitis C57BL/6 mouse model assessed as fold change in YWHAH gene expression in brain at 600 mg/kg/day, ig for 14 days starting from 12th day of immunization by RT-qPCR analysis relative to control; format: functional; settings: time 14 day
Mus musculus [6] = assay: Anti-inflammatory activity against MOG35-55-induced experimental autoimmune encephalomyelitis C57BL/6 mouse model assessed as fold change in CCL5 gene expression in brain at 600 mg/kg/day, ig for 14 days starting from 12th day of immunization by RT-qPCR analysis relative to control; format: functional; settings: time 14 day
Mus musculus [7] = assay: Anti-inflammatory activity against MOG35-55-induced experimental autoimmune encephalomyelitis C57BL/6 mouse model assessed as fold change in H2EB1 (HLA-DRB1) gene expression in brain at 300 mg/kg/day, ig for 14 days starting from 12th day of immunization by RT-qPCR analysis relative to control; format: functional; settings: time 14 day
Mus musculus [8] = assay: Anti-inflammatory activity against MOG35-55-induced experimental autoimmune encephalomyelitis C57BL/6 mouse model assessed as upregulation of PLP protein expression in brain at 300 to 600 mg/kg/day, ig for 14 days starting from 12th day of immunization by western blot analysis relative to control; format: functional; settings: dose 300-600 mg/kg/day, time 14 day
Mus musculus [9] = assay: Anti-inflammatory activity against MOG35-55-induced experimental autoimmune encephalomyelitis C57BL/6 mouse model assessed as fold change in BCL2 gene expression in brain at 600 mg/kg/day, ig for 14 days starting from 12th day of immunization by RT-qPCR analysis relative to control; format: functional; settings: time 14 day
Mus musculus [10] = assay: Anti-inflammatory activity against MOG35-55-induced experimental autoimmune encephalomyelitis C57BL/6 mouse model assessed as reduction in CCL5 protein expression in brain at 300 to 600 mg/kg/day, ig for 14 days starting from 12th day of immunization by western blot analysis; format: functional, organism-based; settings: dose 300-600 mg/kg/day, time 14.0 day
Mus musculus [11] = assay: Anti-inflammatory activity against MOG35-55-induced experimental autoimmune encephalomyelitis C57BL/6 mouse model assessed as fold change in NFKB gene expression in brain at 600 mg/kg/day, ig for 14 days starting from 12th day of immunization by RT-qPCR analysis relative to control; format: functional; settings: time 14 day
Mus musculus [12] = assay: Anti-inflammatory activity against MOG35-55-induced experimental autoimmune encephalomyelitis C57BL/6 mouse model assessed as reduction in TGB1 protein expression in brain at 300 to 600 mg/kg/day, ig for 14 days starting from 12th day of immunization by western blot analysis; format: functional, organism-based; settings: dose 300-600 mg/kg/day, time 14.0 day
Mus musculus [13] = assay: Anti-inflammatory activity against MOG35-55-induced experimental autoimmune encephalomyelitis C57BL/6 mouse model assessed as fold change in CXCL10 gene expression in brain at 300 mg/kg/day, ig for 14 days starting from 12th day of immunization by RT-qPCR analysis relative to control; format: functional; settings: time 14 day
Mus musculus [14] = assay: Anti-inflammatory activity against MOG35-55-induced experimental autoimmune encephalomyelitis C57BL/6 mouse model assessed as reduction in serum chemokines level by measuring reduction in CXCL1 level at 600 mg/kg/day, ig for 14 days starting from 12th day of immunization by ELISA; format: functional, organism-based; settings: time 14.0 day
Mus musculus [15] = assay: Anti-inflammatory activity against MOG35-55-induced experimental autoimmune encephalomyelitis C57BL/6 mouse model assessed as increase in serum IL-4 level at 600 mg/kg/day, ig for 14 days starting from 12th day of immunization by ELISA; format: functional, organism-based; settings: time 14.0 day
Mus musculus [16] = assay: Anti-inflammatory activity against MOG35-55-induced experimental autoimmune encephalomyelitis C57BL/6 mouse model assessed as methylation of CpG sites of IL10RA gene promoter in brain at […], ig for 14 days starting from 12th day of immunization by PCR analysis (reference value: 34.9 +/-4%); format: functional; settings: time 14 day
Mus musculus [17] = assay: Anti-inflammatory activity against MOG35-55-induced experimental autoimmune encephalomyelitis C57BL/6 mouse model assessed as fold change in C1S gene expression in brain at 0.15 mg/kg/day, ig for 14 days starting from 12th day of immunization by RT-qPCR analysis relative to control; format: functional; settings: time 14 day
Mus musculus [18] = assay: Anti-inflammatory activity against MOG35-55-induced experimental autoimmune encephalomyelitis C57BL/6 mouse model assessed as methylation of CpG sites of SOCS5 gene promoter in brain at […], ig for 14 days starting from 12th day of immunization by PCR analysis (reference value: 10.6 +/-4%); format: functional; settings: time 14 day
Mus musculus [19] = assay: Anti-inflammatory activity against MOG35-55-induced experimental autoimmune encephalomyelitis C57BL/6 mouse model assessed as fold change in TNF-alpha gene expression in brain at 0.15 mg/kg/day, ig for 14 days starting from 12th day of immunization by RT-qPCR analysis relative to control; format: functional; settings: time 14 day
Mus musculus [20] = assay: Anti-inflammatory activity against MOG35-55-induced experimental autoimmune encephalomyelitis C57BL/6 mouse model assessed as fold change in MBP gene expression in brain at 0.15 mg/kg/day, ig for 14 days starting from 12th day of immunization by RT-qPCR analysis relative to control; format: functional; settings: time 14 day
Mus musculus [21] = assay: Anti-inflammatory activity against MOG35-55-induced experimental autoimmune encephalomyelitis C57BL/6 mouse model assessed as fold change in CXCL9 gene expression in brain at 0.3 mg/kg/day, ig for 14 days starting from 12th day of immunization by RT-qPCR analysis relative to control; format: functional; settings: time 14 day
Mus musculus [22] = assay: Anti-inflammatory activity against MOG35-55-induced experimental autoimmune encephalomyelitis C57BL/6 mouse model assessed as fold change in PLP gene expression in brain at 0.15 mg/kg/day, ig for 14 days starting from 12th day of immunization by RT-qPCR analysis relative to control; format: functional; settings: time 14 day
Mus musculus [23] = assay: Anti-inflammatory activity against MOG35-55-induced experimental autoimmune encephalomyelitis C57BL/6 mouse model assessed as reduction in serum monokines level by measuring reduction in IL-6 level at 0.3 mg/kg/day, ig for 14 days starting from 12th day of immunization by ELISA; format: functional, organism-based; settings: time 14.0 day

CCCCCCCCCCCCCCCCCCCCCCCCC(=O)O[C@H]1CC[C@]2(C)[C@H]3CC=C4[C@@H]5CC(C)(C)CC[C@]5(CO)CC[C@@]4(C)[C@]3(C)CC[C@H]2C1(C)C
Activity (Mus musculus [1]): Active | fold change (FC) (Mus musculus [2]): 1.32 | Activity (Mus musculus [3]): Active | fold change (FC) (Mus musculus [4]): -1.18 | fold change (FC) (Mus musculus [5]): -1.78 | fold change (FC) (Mus musculus [6]): 1.27 | fold change (FC) (Mus musculus [7]): 2.83 | fold change (FC) (Mus musculus [8]): 2 | fold change (FC) (Mus musculus [9]): 1.68 | Activity (Mus musculus [10]): Active | fold change (FC) (Mus musculus [11]): 1.46 | Activity (Mus musculus [12]): Active | fold change (FC) (Mus musculus [13]): 3.24 | Activity (Mus musculus [14]): Active | Activity (Mus musculus [15]): Active

CCCCCCCCc1ccc(CCC(N)(CO)CO)cc1 [FINGOLIMOD]
Activity (Mus musculus [16]): 51% | fold change (FC) (Mus musculus [17]): 1.91 | Activity (Mus musculus [18]): 8.8% | fold change (FC) (Mus musculus [19]): 2.21 | fold change (FC) (Mus musculus [20]): -1.1 | fold change (FC) (Mus musculus [21]): -1.12 | fold change (FC) (Mus musculus [22]): 1.54 | Activity (Mus musculus [23]): Active
